From ChEMBL document CHEMBL1136673, “Synthesis of low molecular weight compounds with complement inhibition activity” (Bioorg Med Chem Lett, 2003)

How the values were obtained:
Assay type in all cases: functional, organism-based; call rule not given here
[1] = organism: Ovis aries; experiment: The concentration required to inhibit complement mediated hemolysis of sensitized sheep RBC; not active
[2] = organism: Ovis aries; experiment: The concentration effective to cause 50% hemolysis with sensitized sheep erythrocytes in the absence of complement
[3] = organism: Ovis aries; experiment: The concentration required to inhibit complement mediated hemolysis of sensitized sheep RBC
[4] = organism: Ovis aries; experiment: Concentration effective to cause 50% hemolysis with sensitized sheep erythrocytes in the absence of complement
[5] = organism: Ovis aries; experiment: Concentration required to inhibit complement mediated hemolysis of sensitized sheep RBC

`COc1cccc(C(=O)O)c1` was tested, and the IC50 [1] was “Not Active” and the EC50 [2] was 2.96 mM.
In the case of `CCOc1cccc(C=O)c1`, the IC50 [3] is reported as 1 mM and the EC50 [4] is reported as > 4 mM.
In the case of `O=Cc1cccc(Oc2ccccc2)c1`, the IC50 [3] is reported as 1.39 mM and the EC50 [2] is reported as > 0.0033 mM.
`COc1cccc(C=O)c1` was tested, and the IC50 [5] was 0.919 mM and the EC50 [2] was > 4.41 mM.
`CCOc1cccc(-c2nn[nH]n2)c1` was tested, and the IC50 [3] was 0.631 mM and the EC50 [2] was 2.21 mM.
In the case of `COc1cccc(-c2nn[nH]n2)c1`, the IC50 [3] is reported as 1.56 mM and the EC50 [2] is reported as > 3.41 mM.
For `CCOc1cccc(C(=O)O)c1`, the IC50 [1] was “Not Active” and the EC50 [2] was 2.53 mM.
Molecule `c1ccc(Oc2cccc(-c3nn[nH]n3)c2)cc1` has an IC50 [3] of 0.798 mM and an EC50 [2] of 0.954 mM.
`O=C(O)c1cccc(Oc2ccccc2)c1` [M-PHENOXYBENZOIC ACID FOR CIS-ISOMER] was tested, and the IC50 [3] was 1.4 mM and the EC50 [2] was > 2.8 mM.
`CC1(C)CC[C@]2(C(=O)O)CC[C@]3(C)C(=CC[C@@H]4[C@@]5(C)CC[C@H](O)C(C)(C)[C@@H]5CC[C@]43C)[C@@H]2C1` [OLEANOLIC_ACID] was tested, and the IC50 [3] was 0.0766 mM.
In the case of `C[C@H]1[C@H](C)CC[C@]2(C(=O)O)CC[C@]3(C)C(=CC[C@@H]4[C@@]5(C)CC[C@H](O)C(C)(C)[C@@H]5CC[C@]43C)[C@H]12` [URSOLIC ACID], the IC50 [3] is reported as 0.0547 mM.
